Experiments:
[1] = system: Cyphoma digestive gland cytosolic GST; assay: Inhibition of CDNB-conjugating GST activity in digestive gland cytosol; type: biochemical, Cyphoma gibbosum; details: prostaglandins screened at 600 µM, 5% (v/v) DMSO, Figure 3
human mu-class GST M1a-a = system: human mu-class GST M1a-a; set-up: method as in PMID 9084911; details: conversion to glutathione conjugate; read-out: Km for PGA2; cited from earlier work
rat alpha-class GST A4-4 = system: rat alpha-class GST A4-4; set-up: method as in PMID 12230403; details: conversion to glutathione conjugate; read-out: Km for PGA2; cited from earlier work
human mu-class GST M2-2 = system: human mu-class GST M2-2; set-up: method as in PMID 12230403; details: conversion to glutathione conjugate; read-out: Km for PGA2; cited from earlier work

CCCCC[C@@](C)(O)/C=C/[C@H]1C=CC(=O)[C@@H]1C/C=C\CCCC(=O)O [15(R)-15-methyl PGA2]
inhibition of GST activity in comparison to solvent controls [1]: most potent inhibitors

CCCCC[C@H](O)/C=C/[C@H]1C=CC(=O)[C@@H]1C/C=C\CCCC(=O)O [15(S)-PGA2, prostaglandin A2]
inhibition of GST activity in comparison to solvent controls ([1]; 600 µM): most potent inhibitors | inhibition of GST activity in comparison to solvent controls ([1]; listed as PGA2, 600 µM): greatest inhibition | Km (human mu-class GST M1a-a): 26 µM | Km (rat alpha-class GST A4-4): 12 µM | Km (human mu-class GST M2-2): 7.6 µM

CCCCC[C@H](O)/C=C/[C@H]1[C@H](O)CC(=O)[C@@H]1C/C=C\CCCC(=O)OC [15(S)-PGE2-methyl ester]
inhibition of GST activity in comparison to solvent controls [1]: little to no inhibitory activity

CCCCC[C@H](O)/C=C/[C@@H]1[C@@H](C/C=C\CCCC(=O)OC)[C@@H](O)C[C@H]1O [15(S)-PGF2α-methyl ester]
inhibition of GST activity in comparison to solvent controls [1]: little to no inhibitory activity
